Assay results taken from BigSolDB 2.1.

Cc1ccc(C)c(O)c1
Conditions	solubility (mole fraction)
in ethyl acetate, 282.85 K	0.414
in ethyl acetate, 289.95 K	0.449
in ethyl acetate, 298.45 K	0.494
in ethyl acetate, 304.35 K	0.529
in ethyl acetate, 309.95 K	0.563
in ethyl acetate, 314.75 K	0.596
in ethyl acetate, 329.05 K	0.713
in methanol, 281.05 K	0.273
in methanol, 284.75 K	0.291
in methanol, 289.15 K	0.315
in methanol, 293.75 K	0.342
in methanol, 299.45 K	0.381
in methanol, 305.85 K	0.425
in methanol, 307.25 K	0.435
in methanol, 314.25 K	0.492
in methanol, 317.25 K	0.522
in methanol, 321.15 K	0.563
in n-butanol, 281.15 K	0.308
in n-butanol, 285.65 K	0.331
in n-butanol, 289.9 K	0.354
in n-butanol, 294.45 K	0.38
in n-butanol, 298.9 K	0.408
in n-butanol, 304.95 K	0.449
in n-butanol, 311.65 K	0.501
in n-butanol, 317.25 K	0.551
in n-butanol, 322.75 K	0.608
in n-butanol, 331.2 K	0.706
in n-hexanol, 282.6 K	0.325
in n-hexanol, 288.75 K	0.356
in n-hexanol, 293.25 K	0.378
in n-hexanol, 296.65 K	0.4
in n-hexanol, 300.35 K	0.424
in n-hexanol, 310.75 K	0.498
in n-hexanol, 321.65 K	0.598
in n-hexanol, 326.55 K	0.652
in n-hexanol, 331.05 K	0.707
in n-hexanol, 335.35 K	0.764
